The results in this text go back to US20130266590A1, “DIMERIC IAP INHIBITORS” (NOVARTIS AG, priority 2010, published 2013).

SMILES strings stand for the structures. pEC50, pIC50: −log10 of the molar value. Structures can show the parent of a compound that is named as a salt.

Assay [1] has as its target XIAP-BIR3 (Homo sapiens, UniProt P98170). The experiment in a line: Biacore SPR solution competition binding assay vs smac7mer peptide, XIAP-BIR3. Particulars: SPR competition with captured smac7mer peptide; 100 nM XIAP-BIR3; 25° C.; read-out: XIAP-BIR3 Binding Biacore (Competitive) EC50. The text has this: (§1) The compounds described herein above were profiled using a cellular assay (using Panc3.27 tumor cells) and a binding assay to determine the competition between the compounds of the present invention and smac7mer peptide for XIAP-BIR3 and cIAP1-BIR3 binding groove occupancy.
(§2) The present method includes utility of a Surface plasmon resonance (SPR)-based biosensor (Biacore™, GE Healthcare, Uppsala, Sweden) to examine competition between the compounds of the present invention and smac7mer peptide for XIAP-BIR3 and cIAP1-BIR3 binding groove occupancy.
(§3) Biacore™ utilizes the phenomenon of surface plasmon resonance (SPR) to detect and measure binding interactions. In a typical Biacore experiment, one of the interacting molecules is immobilized on a flexible dextran matrix while the interacting partner is flowed over the derivatized surface. A binding interaction results in an increase in mass on the sensor surface and a corresponding direct change in the refractive index of the medium in the vicinity of the sensor surface. Changes in refractive index or signal are recorded in resonance units (R.U.) Signal changes due to association and dissociation of complexes are monitored in a non-invasive manner, continuously and in real-time, the results of which are reported in the form of a sensorgram.
(§4) Biacore™ T100 (GE Healthcare, Uppsala, Sweden) was used to conduct all experiments reported herein. Sensor surface preparation and interaction analyses were performed at 25° C. Buffer and Biacore reagents were purchased from GE Healthcare. Running buffer containing 10 mM Hepes, pH7.4, 150 mM sodium chloride, 1.25 mM Dithiothreitol, 2% Dimethyl sulfoxide and 0.05% polysorbate 20 was utilized throughout all experiments.
(§5) Biotinylated smac7mer peptide was diluted to 10 nM in running buffer and captured onto a sensor surface pre-derivatized with streptavidin (sensor chip SA) towards peptide surface densities in the range 40-100 R.U. Peptide captured surfaces were blocked with 500 μM PEO2-Biotin (Thermo Scientific).
(§6) Interaction analyses were performed by first equilibrating each compound within a six point seven fold compound dilution series in the range 1 μM to 0.06 nM with either 100 nM XIAP-BIR3 or 6 nM cIAP1-BIR3 for at least one hour during instrument start-up procedures. Protein compound mixtures were then injected over reference and smac7mer peptide surfaces in series for 60 seconds at a flow-rate of 60 μL/min. Surface regeneration was performed at the end of each analysis cycle by a 30 second injection of 10 mM Glycine, pH 2.5, 1M Sodium Chloride, 0.05% polysorbate 20. Additionally, control compound samples and control XIAP-BIR3 or cIAP1-BIR3 samples were prepared and run at regular intervals to monitor surface and assay performance.
(§7) Data analyses were carried out using Biacore™ T100 evaluation software v2.0 to validate assay quality. Binding level report points were plotted versus logarithmic compound concentration values and analyzed in Graphpad prism 5 via non-linear regression using a one-site competition model. EC50 values were generated and used as a measure of inhibitor potency.

Assay [2] has as its target cIAP1-BIR3 (Homo sapiens, UniProt Q13490). The assay can be described thus: Biacore SPR solution competition binding assay vs smac7mer peptide, cIAP1-BIR3. The note with it: SPR competition with captured smac7mer peptide; 6 nM cIAP1-BIR3; 25° C.; read-out: CIAP-BIR3 Binding Biacore (Competitive) EC50.
Description: as §1, §2, §3, §4, §5, §6, §7
In general terms: Surface plasmon resonance follows binding to a sensor surface in real time, without labels.

Assay [3] relates to Panc3.27 tumor cells. The experiment in a line: Cellular assay: Panc3.27 tumor cell proliferation (Cell Titer Glo). It is filed as cell-based. The note with it: Panc3.27 cells, 4000 cells per well, 72 hour growth, CTG readout, percent control growth; read-out: PANC proliferation IC50. As for the experimental part: as §1
Cellular Assay—Treatment of Panc3.27 Tumor Cells with Dimeric IAP Antagonists
On day one adherent Panc3.27 cells are plated into two 96-well, clear, flat bottom plates. All wells in row A contain 90 uL of media. All wells in rows B-G contain a total volume of 90 uL per well and 4000 cells per well for Panc3.27 cell lines. Plates are then incubated overnight for 18 hours at 37° C., 5% CO2.
On day two cells are treated with the compounds of formula M-L-M′. Treatments are done in triplicate. The compounds are first serially diluted in DMSO and then added to media giving a final concentration of 0.2% DMSO when added to cells. Cells are treated with 10 uL of serially diluted compounds of formula M-L-M′ at a final concentration of 1000 nM, 200 nM, 40 nM, 8 nM, 1.6 nM, 0.32 nM, 0.06 nM, 0.013 nM, 0.0026 nM, and one untreated well. Plate two is used as a time zero plate.
To measure cell viability 50 uL of Cell Titer Glo (CTG) solution is added to row A, media only and B, cells and media. CTG is purchased from Promega Corporation catalog number G7573. The solution is prepared according to manufacturer's instructions. CTG measures the amount of ATP released from viable cells that is proportional to the number of cells in each well. After incubating for ten minutes with CTG plates are measured on a luminescent reader at 700 nm wavelength. Read time is approximately one second per well for a 96-well plate.
On day five 50 uL of CTG is added to plate one, rows A-G, incubated for 10 minutes at room temperature and read on a luminescent reader. Raw data is adjusted to account for the time zero plate as well as background noise. Triplicate values are averaged and percent control growth is calculated. Percent control growth is calculated using the following logical test: If well read data point (a) is greater than time zero data point (t=0), then 100*[(a)−(t=0)]/[(72 hour total growth)−(t=0)], OR 100*[(a)−(t=0)]/[(t=0)]. Data is represented by line graph with the concentration of compound on the x axis and percent control growth on the y axis.
Background: In ATP-based viability assays light output follows the ATP content of the culture.

Sequence of cIAP1-BIR3 (Q13490 253-363 limits assumed): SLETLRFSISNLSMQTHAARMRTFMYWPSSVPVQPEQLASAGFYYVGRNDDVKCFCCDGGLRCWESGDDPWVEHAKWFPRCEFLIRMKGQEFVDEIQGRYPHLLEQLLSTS
Sequence of XIAP-BIR3 (P98170 241-356 limits assumed): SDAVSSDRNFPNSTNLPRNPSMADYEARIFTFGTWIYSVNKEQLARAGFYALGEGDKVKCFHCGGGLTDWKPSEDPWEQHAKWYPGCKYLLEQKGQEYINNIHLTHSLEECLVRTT

As usually defined, the pEC50 is the negative decadic logarithm of the EC50, by convention in mol/L. As for `CN[C@@H](C)C(=O)N[C@H](C(=O)N1CCC[C@H]1c1cncc(-c2ccc(F)c(C(=O)NNC(=O)c3cc(-c4cncc([C@@H]5CCCN5C(=O)[C@@H](NC(=O)[C@H](C)NC)C5CCCCC5)c4)ccc3F)c2)c1)C1CCCCC1` [Example 2N-2], the pEC50 was 7.12 in assay [1] and 8.87 to 8.90 in assay [2]. For the same compound, the pIC50 in assay [3] is 10.70 to 11.59.
Take `CN[C@@H](C)C(=O)N[C@H](C(=O)N1CCC[C@H]1c1cncc(-c2ccc(F)cc2CNC(=O)c2ccc(-c3ccc(C(=O)NCc4cc(F)ccc4-c4cncc([C@@H]5CCCN5C(=O)[C@@H](NC(=O)[C@H](C)NC)C5CCCCC5)c4)cc3)cc2)c1)C1CCCCC1` [Example 3A, N4,N4′-bis(2-(5-((S)-1-(S)-2-cyclohexyl-2-((S)-2-(methylamino)-propanamido)acetyl)pyrrolidin-2-yl)pyridin-3-yl)-5-fluorobenzyl)biphenyl-4,4′-dicarboxamide, trifluoroacetate]: the pEC50 in assay [1] was 6.89 to 6.90; in assay [2], 9.06 to 9.07. Moreover, the pIC50 in assay [3] is 11.08 to 11.59.
